This data set can be described thus: Solubility versus pH at ~22-24° C. The class given is physicochemical. The settings on record: 23 °C. The text has this: However, carbidopa and LDEE, examples of two active materials in the composition of the present invention, have different chemical and physical properties and contrasting solubility characteristics especially in acid conditions, i.e., in the gastrointestinal tract (see Table 1).

Where [1] appears, read: aqueous buffer, pH 5.0, ~22-24° C.
Where [2] appears, read: simulated gastric fluid, pH 1.0, ~22-24° C.

Structures are written as SMILES. Converted amounts (≈) assume the structure as drawn.

With `C[C@@](Cc1ccc(O)c(O)c1)(NN)C(=O)O` [Carbidopa, carbidopa], the solubility was 1660 µg/mL (≈ 7.34 mM) under setting [1] and 21400 µg/mL (≈ 94.6 mM) under setting [2].
Take `N[C@@H](Cc1ccc(O)c(O)c1)C(=O)O` [Levodopa, levodopa]: the solubility reads like this: under setting [1], 4960 µg/mL (≈ 25.2 mM); under setting [2], 5380 µg/mL (≈ 27.3 mM).

(Values after US20030147957A1, “Dual release formulation comprising levodopa ethyl ester and a decarboxylase inhibitor in immediate release layer with levodopa ethyl ester and a decarboxylase inhibitor in a controlled release core” (priority 2001, published 2003).)
